Assay results from USRE36139E, “Hydroquinone derivative” (Nippon Hypox Laboratories Incorporated, priority 1995, dated 1999).

Key:
Salmonellae = details: result in words; cited from earlier work
laboratory animals = details: result in words; cited from earlier work
rats = details: liver, large intestine, small intestine and gland of external acoustic meatus; cited from earlier work
[1] = system: lipid of rat liver microsome; test: Inhibition activity against hyperoxidation of lipid of rat liver microsome; type: biochemical, male Sprague Dawley (SD) rats; details: for antioxidant activity (conclusion from Table 2): result in words; for antioxidant activity: general statement in words, no test named at the place
Procedure: [Inhibition activity against hyperoxidation of lipid of rat liver microsome ] (1) Preparation of rat liver microsome suspension, A plurality of male Sprague Dawley (SD) rats (weighing […]) were prepared. Each rat was anesthetized with pentobarbital, and then subjected to celiotomy. A cannula was introduced into the portal vein of each rat, the abdominal large veins were sectioned, and 500 ml of cold 0.9% NaCl was injected into the portal veins. Livers were extracted from individual rats, and the livers were cut to pieces in 1.15% KCl and homogenized with ice cooling. Then, 1.15% KCl was further added to obtain a 30% liver homogenized solution. The above homogenized solution was centrifugally separated at 8,000 g (g: gravitation acceleration) for 10 minutes, and the resultant supernatant was recovered. […] The so-prepared suspension was stored at -20° C. before a test described in the following (2), and it was used within 1 week after the preparation. (2) Test on inhibition activity against hyperoxidation of lipid As test compounds, the hydroquinone (HQ) derivatives obtained in Preparation Examples 1 to 12, a known hydroquinone derivative which was a compound of the formula (I) in which R^1 was methyl (hereinafter referred to as HQ1) and BHT were respectively tested on their inhibition activities against hyperoxidation of lipid in the following manner. First, 0.1 ml of the liver microsome suspension obtained in the above (1), 0.1 ml of reduced […] (NADPH) (final concentration 2 mM), 0.1 ml of adenosine 5'-diphosphate (ADP) (final concentration 10 mM) and 0.1 ml of a solution of one of the test compounds whose concentration was adjusted as shown in Table 2 with 10% dimethylformamide (DMF) were added to a tris-HCl buffer (167 mM KCl, 74 mM tris-HCE buffer (TRIS), pH 7.4), and the resultant mixture was warmed at 37° C. for 5 minutes. Then, 0.1 ml of FeCl3 (final concentration 0.1 mM) was added, and the mixture was warmed at 37° C. for 20 minutes. […] Then, 0.2 ml of 8.1% sodium dodecylsulfate (SDS), 1.5 ml of an acetic acid buffer (prepared by adjusting 20% acetic acid containing 0.27 mM HCl to pH 3.5 with 10N NaOH) and 1.5 ml of 0.8% thiobarbituric acid were added to the cooled reaction mixture, and the resultant mixture was warmed over a boiling water bath for 20 minutes. […] The mixture was vigorously stirred. The reaction mixture was centrifugally separated at 2,000 rpm for 10 minutes, and the resultant supernatant was measured for an absorbance at 532 nm to determine a thiobarbituric acid reaction amount. […] In Control, the solution of the test compound in 10% DMF was replaced with 0.1 ml of a 10% DMF solution, and the above procedures were repeated to determine a peroxidized lipid amount. In Blank, each of 0.1 ml of NDAPH, 0.1 ml of ADP and 0.1 ml of FeCl3 were replaced with 0.1 ml of water, the solution of the test compound in 10% DMF was replaced with 0.1 ml of a 10% DMF solution, and the above procedures were repeated to determine a peroxidized lipid amount. The inhibition ratio of the lipid peroxidation reaction was calculated on the basis of the following equation. Inhibition ratio (%)=[1-(OD1 -OD3)/(OD2 -OD3)]×100 OD1 : Absorbance when test compound is added. OD2 : Absorbance of Control OD3 : Absorbance of Blank

mice = test: Acute toxicity test by simple oral administering; type: in vivo, Female ICR mice; details: maximum dose 500 mg/kg, 14 days observation
Excerpt: Female ICR mice of 8 weeks age were used to carry out an acute toxicity test by simple oral administering.

[2] = DPPH elimination ability (active organic radical species elimination ability); type: biochemical; details: FIG. 1; absorbance at 517 nm; 0.02 ml of 10^-2 M DMF solution added to 2 ml of 10^-4 M DPPH in ethanol; result in words
Procedure: [DPPH elimination ability]
The hydroquinone derivative obtained in Preparation Example 5 and BHT as test compounds were measured for the ability to eliminate DPPH (α,α-diphenyl-β-picrylhydrazyl) (active organic radical species elimination ability) in the following manner.
The test compounds were respectively dissolved in DMF to prepare DMF solutions having a test compound concentration of 10^-2 M.
Then, 0.02 ml each of the above DMF solutions were respectively added to 2 ml of an ethanol EtOH solution containing 10^-4 M of DPPH, and the resultant solutions were measured for absorbance (ODS) at 517 nm at predetermined time intervals. The DPPH elimination ability of each test compound was determined on the basis of these measurement results. In Control, the DMF solution of the test compound was replaced with DMF itself,
The elimination ability of each test compound was determined as a reduction ratio of ODS to the absorbance in Control.

Compound | Inhibition ratio of lipid peroxidation ([1]; 10^-5 M test compound, 10 µM) | Inhibition ratio of lipid peroxidation ([1]; 10^-6 M test compound, 1 µM) | also measured
Cc1cccn2c1nc1ccc(N)nc12 [Glu-P-1, 2-amino-6-methyldipyrido[1,2-a:3',2'-d]imidazole] | – | – | mutagenic activity (Salmonellae): high mutagenic activity to Salmonellae; carcinogenic activity (laboratory animals): carcinogenic activity to laboratory animals; incidence of cancer (rats): high rate of incidence of cancer
COc1ccc(O)cc1 [HQ1, reference compound] | 37.8% | – | –
CCCCCCCCOc1ccc(O)cc1 [Preparation Example 1] | 99.7% | 9.8% | antioxidant activity (conclusion from Table 2) [1]: excellent antioxidant activity over the known hydroquinone derivative HQ1; mortality (mice): No mice were found to die
CCCCCCCCCCOc1ccc(O)cc1 [Preparation Example 2] | 79.5% | 1.8% | antioxidant activity (conclusion from Table 2) [1]: excellent antioxidant activity over the known hydroquinone derivative HQ1
CCCCOc1cc(C)c(O)c(C)c1C [Preparation Example 3, 1-butyl-2,3,5-trimethylhydroquinone] | – | 75.9% | –
CCCCCCOc1cc(C)c(O)c(C)c1C [Preparation Example 4] | 100.0% | 98.9% | –
CCCCCCCCOc1cc(C)c(O)c(C)c1C [Preparation Example 5] | 100.0% | 74.8% | DPPH elimination ability [2]: excellent DPPH elimination ability over BHT
CCCCCCCCCCOc1cc(C)c(O)c(C)c1C [Preparation Example 6] | 99.9% | 38.3% | –
CCCCCCCCCCCCOc1cc(C)c(O)c(C)c1C [Preparation Example 7] | 63.9% | 30.8% | –
CCCCCCOc1c(C)cc(O)c(C)c1C [Preparation Example 8] | 98.3% | 40% | –
CCCCOc1ccc(O)cc1 [Preparation Example 9, 1-butylhydroquinone] | 86.1% | 10.8% | antioxidant activity [1]: excellent antioxidant activity
CCCCCCOc1ccc(O)cc1 [Preparation Example 10] | 99.1% | 8.8% | antioxidant activity [1]: excellent antioxidant activity
CCCCCCCCCCCCOc1ccc(O)cc1 [Preparation Example 11, 1-dodecylhydroquinone] | 73.4% | 6.3% | antioxidant activity [1]: excellent antioxidant activity
CCOc1cc(C)c(O)c(C)c1C [Preparation Example 12, 1-ethyl-2,3,5-trimethylhydroquinone] | 87.2% | – | mortality (mice): No mice were found to die
